The values below come from ChEMBL document CHEMBL1201862, “PubChem BioAssay data set” (2004).

The subject of test [1] is BJ. Put plainly: cells. It is filed as functional, cell-based. The note with it: Homo sapiens.
Another test deals with INS1. In words: INS-1E survival protection against cytokine death – cell-based, luminescence, retest, dose response (AID 449756).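 Also: cell death triggered by IL-1 beta plus TNF-alpha plus IFN-gamma mixture; protective hits raise ATP signal compared with cytokine alone wells.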 It is filed as functional. The conditions noted are these: Rattus norvegicus.
A short description of test [2]: viability of HCT116 lacking mutant beta-catenin – cell-based, human colon tumor, dose response (AID 1045).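 Also: HCT116 colon tumor cells with beta catenin knocked out; cells exposed to compound for 60 hours.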 It is filed as functional.
In test [3] the test system is BJ. Put plainly: BJ-TERT-LT-ST fibroblast viability loss – cell-based, RAS-independent, luminescence, dose response (AID 1935).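 Also: BJ fibroblasts immortalized with TERT plus LT and ST oncogenes.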 It is filed as functional. The conditions noted are these: Homo sapiens.
The target in test [4] is Intestinal-type alkaline phosphatase (Homo sapiens, UniProt P09923). In words: activation of human intestinal alkaline phosphatase – biochemical, dose response (AID 488873). It is filed as functional.
Another test concerns the target Aspartyl aminopeptidase (Plasmodium falciparum 3D7, UniProt Q8I2J3).
A further test addresses Large T antigen (Simian virus 40, UniProt P03070). It is filed as functional, Betapolyomavirus macacae.
Test [5] has as its target Intestinal-type alkaline phosphatase (Mus musculus, UniProt P24822). Put plainly: mouse intestinal alkaline phosphatase activators, dose response, biochemical, luminescence, uHTS hits (AID 488783). It is filed as functional.
Test [6] deals with RNA-editing ligase 1, mitochondrial (Trypanosoma brucei brucei, UniProt P86926). In words: inhibition of trypanosome RNA editing ligase – biochemical, fluorescence, Trypanosoma brucei, dose response (AID 1117295). It is filed as functional.
For test [7], the target named is Tyrosine-protein kinase JAK3 (Homo sapiens, UniProt P52333). It is filed as functional.
The target in test [8] is Calcium/calmodulin-dependent protein kinase type II subunit delta (Homo sapiens, UniProt Q13557). It is filed as functional.
Test [9] concerns the target Mitogen-activated protein kinase 1 (Homo sapiens, UniProt P28482). It is filed as functional.
Test [10] deals with Dual specificity protein kinase CLK2 (Homo sapiens, UniProt P49760). It is filed as functional.
In test [11] the target is Homeodomain-interacting protein kinase 4 (Homo sapiens, UniProt Q8NE63). It is filed as functional.
For test [12], the target named is Vascular endothelial growth factor receptor 3 (Homo sapiens, UniProt P35916). It is filed as functional.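 Also: value from a kinome-wide profiling panel, with FLT4 as the panel member.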
In test [13] the target is Serine/threonine-protein kinase pim-1 (Homo sapiens, UniProt P11309). It is filed as functional.
Test [14] concerns the target Serine/threonine-protein kinase Chk2 (Homo sapiens, UniProt O96017). It is filed as functional.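 Also: CHEK2 entry within a kinome-wide screening panel.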
Test [15] addresses Tyrosine-protein kinase receptor TYRO3 (Homo sapiens, UniProt Q06418). It is filed as functional.
The target of test [16] is Tyrosine-protein kinase ABL1 (Homo sapiens, UniProt P00519). It is filed as functional.
The target of test [17] is Tyrosine-protein kinase BTK (Homo sapiens, UniProt Q06187). It is filed as functional.
A further test addresses Ephrin type-A receptor 2 (Homo sapiens, UniProt P29317). It is filed as functional.
Test [18] deals with Eukaryotic elongation factor 2 kinase (Homo sapiens, UniProt O00418). It is filed as functional.
In test [19] the target is Ribosomal protein S6 kinase beta-1 (Homo sapiens, UniProt P23443). It is filed as functional.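 Also: measured as one member of a kinome-wide profiling panel.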
Test [20] has as its target Tyrosine-protein kinase JAK2 (Homo sapiens, UniProt O60674). It is filed as functional.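 Also: JAK2 tested as one member of a kinase panel.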
Test [21] addresses Megakaryocyte-associated tyrosine-protein kinase (Homo sapiens, UniProt P42679). It is filed as functional.
Test [22] deals with Casein kinase I isoform gamma-1 (Homo sapiens, UniProt Q9HCP0). It is filed as functional.
Test [23] addresses STE20-like serine/threonine-protein kinase (Homo sapiens, UniProt Q9H2G2). It is filed as functional.
Test [24] concerns the target Insulin-like growth factor 1 receptor (Homo sapiens, UniProt P08069). In words: Navigating the Kinome. Panel member name: IGF1R. It is filed as functional.
The target of a further test is Aurora kinase B (Homo sapiens, UniProt Q96GD4). It is filed as functional.
Test [25] deals with Cyclin-dependent kinase 1 (Homo sapiens, UniProt P06493). It is filed as functional.
Test [26] deals with Serine/threonine-protein kinase D2 (Homo sapiens, UniProt Q9BZL6). It is filed as functional.
The target in another test is Aurora kinase A (Homo sapiens, UniProt O14965). It is filed as functional.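 Also: value from the Navigating the Kinome kinase panel profiling, panel entry STK6.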
Test [27] deals with Receptor-type tyrosine-protein kinase FLT3 (Homo sapiens, UniProt P36888). It is filed as functional.
Test [28] has as its target Macrophage colony-stimulating factor 1 receptor (Homo sapiens, UniProt P07333). It is filed as functional.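 Also: value comes from the Navigating the Kinome screening panel, CSF1R member.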
Test [29] concerns the target Rho-associated protein kinase 1 (Homo sapiens, UniProt Q13464). It is filed as functional.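 Also: measured within a broad kinome-wide panel profiling many kinases.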
Test [30] deals with High affinity nerve growth factor receptor (Homo sapiens, UniProt P04629). It is filed as functional.
The target of test [31] is Serine/threonine-protein kinase pim-2 (Homo sapiens, UniProt Q9P1W9). It is filed as functional.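 Also: value comes from a broad kinase panel profiling study in which PIM2 was one of the panel members.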
Test [32] has as its target Protein kinase C iota type (Homo sapiens, UniProt P41743). It is filed as functional.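 Also: measured within a kinome-wide kinase panel, PRKCI as panel member.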
For test [33], the target named is Protein kinase C delta type (Homo sapiens, UniProt Q05655). It is filed as functional.
For test [34], the target named is Serine/threonine-protein kinase MRCK alpha (Homo sapiens, UniProt Q5VT25). It is filed as functional.
Test [35] has as its target Voltage-gated N-type calcium channel alpha-1B subunit/Amyloid beta A4 precursor protein-binding family A member 1 (Homo sapiens, UniProt Q00975+Q02410). It is filed as protein assay.
The next test has as its target Beta Lactamase (Pseudomonas aeruginosa, UniProt Q932Y6). In words: BLA reporter interference, concentration series – BLA reporter cells, FRET fluorescence, artefact control for TLR9-MyD88 binding inhibitor project, dose response (AID 588341).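 Also: cell based assay in CHO-K1 cells stably expressing beta-lactamase.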 It is filed as cell-based.
The target of the next test is Paired box protein Pax-8 (Homo sapiens, UniProt Q06710). In words: PAX8 transcriptional activity inhibition in RMG-I – RMG-I cells, luciferase, cherry-pick, dose response (AID 687027).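 Also: luciferase reporter driven by Pax8 target thyroperoxidase promoter measured by SteadyGlo luminescence.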 It is filed as functional, cell-based.
The subject of test [36] is Vero. In words: cells. It is filed as functional. The conditions noted are these: Chlorocebus sabaeus.
For a further test, the target named is Fatty acid synthase (Homo sapiens, UniProt P49327). In words: inhibition of human FAS-TE enzyme activity – biochemical, kinetic fluorescence intensity, dose response (AID 624326).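 Also: rate of fluorescence rise from hydrolysis of a fluorogenic O-methyl fluorescein ester substrate.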 It is filed as functional.
The test system of test [37] is Vero. In words: viability of Vero cells under compound – cytotoxicity control for flavivirus capping enzyme inhibitors (AID 588742). It is filed as functional. The note with it: Chlorocebus sabaeus.

Calls of active or inactive are those of the source.

Fatty acid synthase, sequence (P49327 whole entry): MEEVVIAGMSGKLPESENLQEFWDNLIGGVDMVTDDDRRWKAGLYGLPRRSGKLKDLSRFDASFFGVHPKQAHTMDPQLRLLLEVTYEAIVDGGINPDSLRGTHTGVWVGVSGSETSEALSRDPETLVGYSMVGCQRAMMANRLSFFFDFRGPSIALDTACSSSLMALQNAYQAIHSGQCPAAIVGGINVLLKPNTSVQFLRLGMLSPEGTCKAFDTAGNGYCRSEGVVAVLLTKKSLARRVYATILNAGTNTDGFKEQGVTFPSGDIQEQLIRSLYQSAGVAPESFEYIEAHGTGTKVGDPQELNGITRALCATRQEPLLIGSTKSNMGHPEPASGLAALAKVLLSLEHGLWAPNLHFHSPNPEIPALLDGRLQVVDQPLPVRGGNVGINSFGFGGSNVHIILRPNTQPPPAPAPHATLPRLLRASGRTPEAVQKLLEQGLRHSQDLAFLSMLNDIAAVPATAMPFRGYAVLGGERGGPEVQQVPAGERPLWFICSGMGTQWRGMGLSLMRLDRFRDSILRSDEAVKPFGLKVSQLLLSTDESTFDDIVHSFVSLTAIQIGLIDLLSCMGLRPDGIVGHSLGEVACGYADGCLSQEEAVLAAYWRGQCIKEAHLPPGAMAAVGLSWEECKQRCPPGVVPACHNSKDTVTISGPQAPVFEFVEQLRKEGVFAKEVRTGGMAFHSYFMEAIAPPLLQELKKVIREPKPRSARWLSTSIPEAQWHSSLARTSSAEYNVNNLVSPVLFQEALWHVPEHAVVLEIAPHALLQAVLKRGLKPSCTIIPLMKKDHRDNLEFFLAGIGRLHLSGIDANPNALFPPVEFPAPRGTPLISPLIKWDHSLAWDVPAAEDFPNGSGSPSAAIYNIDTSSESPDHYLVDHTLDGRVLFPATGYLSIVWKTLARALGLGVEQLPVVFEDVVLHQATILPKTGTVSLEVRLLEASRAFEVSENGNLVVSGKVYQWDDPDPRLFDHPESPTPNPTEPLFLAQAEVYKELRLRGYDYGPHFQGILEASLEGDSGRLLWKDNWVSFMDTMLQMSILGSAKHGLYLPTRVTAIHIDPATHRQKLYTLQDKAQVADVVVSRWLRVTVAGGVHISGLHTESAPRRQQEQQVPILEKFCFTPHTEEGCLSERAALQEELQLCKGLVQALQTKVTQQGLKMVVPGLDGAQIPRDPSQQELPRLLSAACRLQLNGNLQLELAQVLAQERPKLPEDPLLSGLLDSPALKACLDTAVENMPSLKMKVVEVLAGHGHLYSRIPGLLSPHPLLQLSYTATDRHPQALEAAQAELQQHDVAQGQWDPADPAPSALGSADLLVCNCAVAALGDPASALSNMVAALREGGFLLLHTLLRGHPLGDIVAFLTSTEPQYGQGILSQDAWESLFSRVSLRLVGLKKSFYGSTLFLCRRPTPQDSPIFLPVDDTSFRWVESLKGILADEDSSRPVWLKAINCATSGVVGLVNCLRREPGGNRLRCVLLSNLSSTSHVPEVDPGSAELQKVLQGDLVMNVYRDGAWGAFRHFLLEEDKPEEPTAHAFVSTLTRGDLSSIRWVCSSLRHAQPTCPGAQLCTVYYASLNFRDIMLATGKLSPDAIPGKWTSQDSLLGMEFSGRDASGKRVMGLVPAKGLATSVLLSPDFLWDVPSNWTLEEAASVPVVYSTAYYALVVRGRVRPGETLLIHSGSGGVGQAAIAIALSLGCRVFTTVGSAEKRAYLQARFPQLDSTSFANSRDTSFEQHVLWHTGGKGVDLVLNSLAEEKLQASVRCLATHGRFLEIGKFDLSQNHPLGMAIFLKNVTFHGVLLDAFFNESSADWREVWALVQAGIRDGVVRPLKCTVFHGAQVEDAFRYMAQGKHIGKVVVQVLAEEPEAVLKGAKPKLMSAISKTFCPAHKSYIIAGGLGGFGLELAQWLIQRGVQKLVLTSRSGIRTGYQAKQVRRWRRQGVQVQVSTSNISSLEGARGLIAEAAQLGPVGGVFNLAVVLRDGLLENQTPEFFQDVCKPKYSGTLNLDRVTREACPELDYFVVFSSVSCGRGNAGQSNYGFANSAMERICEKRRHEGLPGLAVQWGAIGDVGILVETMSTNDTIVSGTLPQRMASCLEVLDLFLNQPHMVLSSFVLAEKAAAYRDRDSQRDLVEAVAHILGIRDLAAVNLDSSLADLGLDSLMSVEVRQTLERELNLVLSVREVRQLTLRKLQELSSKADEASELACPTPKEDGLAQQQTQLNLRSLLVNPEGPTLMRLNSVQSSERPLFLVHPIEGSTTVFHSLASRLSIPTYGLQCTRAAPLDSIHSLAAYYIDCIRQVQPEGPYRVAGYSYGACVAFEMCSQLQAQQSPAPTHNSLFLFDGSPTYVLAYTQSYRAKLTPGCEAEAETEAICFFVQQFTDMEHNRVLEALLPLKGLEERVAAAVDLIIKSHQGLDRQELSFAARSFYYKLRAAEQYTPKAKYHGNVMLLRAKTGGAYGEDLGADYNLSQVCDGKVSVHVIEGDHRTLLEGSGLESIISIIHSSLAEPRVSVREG
Aurora kinase B, sequence (Q96GD4 whole entry): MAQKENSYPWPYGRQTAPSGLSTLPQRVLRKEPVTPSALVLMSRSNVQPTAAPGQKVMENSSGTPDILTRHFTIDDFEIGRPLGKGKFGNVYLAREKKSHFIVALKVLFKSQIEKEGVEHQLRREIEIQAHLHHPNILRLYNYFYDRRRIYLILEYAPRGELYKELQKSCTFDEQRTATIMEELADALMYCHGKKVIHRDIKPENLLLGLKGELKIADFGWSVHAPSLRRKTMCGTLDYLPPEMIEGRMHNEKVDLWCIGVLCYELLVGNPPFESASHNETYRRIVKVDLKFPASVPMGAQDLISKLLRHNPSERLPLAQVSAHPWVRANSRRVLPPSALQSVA
Paired box protein Pax-8, sequence (Q06710 whole entry): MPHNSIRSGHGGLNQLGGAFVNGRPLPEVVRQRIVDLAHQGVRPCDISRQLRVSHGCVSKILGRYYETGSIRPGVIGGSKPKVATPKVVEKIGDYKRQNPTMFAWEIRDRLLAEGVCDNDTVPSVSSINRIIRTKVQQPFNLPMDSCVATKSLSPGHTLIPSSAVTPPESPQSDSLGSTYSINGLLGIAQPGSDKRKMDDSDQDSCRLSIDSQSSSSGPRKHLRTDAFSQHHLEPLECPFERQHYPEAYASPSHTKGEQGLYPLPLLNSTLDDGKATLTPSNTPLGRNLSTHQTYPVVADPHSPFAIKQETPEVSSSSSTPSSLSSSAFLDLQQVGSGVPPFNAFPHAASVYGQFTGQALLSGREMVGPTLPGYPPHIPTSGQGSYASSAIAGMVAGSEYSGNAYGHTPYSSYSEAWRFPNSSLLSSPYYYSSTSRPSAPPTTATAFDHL
Serine/threonine-protein kinase pim-2, sequence (Q9P1W9 whole entry): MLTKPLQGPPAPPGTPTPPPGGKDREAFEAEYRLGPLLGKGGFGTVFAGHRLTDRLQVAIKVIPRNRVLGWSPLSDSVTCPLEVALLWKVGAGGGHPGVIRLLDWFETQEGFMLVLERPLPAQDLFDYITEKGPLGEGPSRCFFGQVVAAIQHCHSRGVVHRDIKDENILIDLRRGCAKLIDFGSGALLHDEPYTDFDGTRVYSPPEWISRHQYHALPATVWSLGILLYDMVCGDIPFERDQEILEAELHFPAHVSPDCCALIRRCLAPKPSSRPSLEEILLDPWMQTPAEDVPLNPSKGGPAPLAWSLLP
Casein kinase I isoform gamma-1, sequence (Q9HCP0 whole entry, canonical isoform): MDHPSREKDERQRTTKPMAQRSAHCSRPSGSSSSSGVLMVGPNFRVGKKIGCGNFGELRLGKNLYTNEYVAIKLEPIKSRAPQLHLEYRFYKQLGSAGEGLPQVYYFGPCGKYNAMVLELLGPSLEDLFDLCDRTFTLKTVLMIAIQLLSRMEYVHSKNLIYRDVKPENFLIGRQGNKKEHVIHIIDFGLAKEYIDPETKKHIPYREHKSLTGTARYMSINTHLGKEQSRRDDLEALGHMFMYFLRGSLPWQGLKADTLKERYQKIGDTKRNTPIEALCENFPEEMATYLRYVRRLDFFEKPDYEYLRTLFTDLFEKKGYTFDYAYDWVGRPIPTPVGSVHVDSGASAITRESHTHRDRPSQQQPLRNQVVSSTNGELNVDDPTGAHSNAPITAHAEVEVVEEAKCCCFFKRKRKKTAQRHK
Dual specificity protein kinase CLK2, sequence (P49760 whole entry): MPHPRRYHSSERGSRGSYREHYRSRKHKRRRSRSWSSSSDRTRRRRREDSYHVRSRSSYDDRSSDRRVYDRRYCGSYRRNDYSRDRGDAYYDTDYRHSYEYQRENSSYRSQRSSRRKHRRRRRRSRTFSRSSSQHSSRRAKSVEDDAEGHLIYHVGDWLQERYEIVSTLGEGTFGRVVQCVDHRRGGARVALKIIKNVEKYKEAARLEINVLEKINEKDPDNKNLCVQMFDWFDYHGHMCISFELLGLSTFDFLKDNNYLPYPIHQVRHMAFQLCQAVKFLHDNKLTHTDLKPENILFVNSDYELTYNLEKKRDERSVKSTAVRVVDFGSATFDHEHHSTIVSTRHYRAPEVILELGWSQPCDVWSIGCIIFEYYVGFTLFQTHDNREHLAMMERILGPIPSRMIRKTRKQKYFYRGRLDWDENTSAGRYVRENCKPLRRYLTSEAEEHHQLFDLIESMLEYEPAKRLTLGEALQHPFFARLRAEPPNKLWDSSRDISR
Calcium/calmodulin-dependent protein kinase type II subunit delta, sequence (Q13557 whole entry): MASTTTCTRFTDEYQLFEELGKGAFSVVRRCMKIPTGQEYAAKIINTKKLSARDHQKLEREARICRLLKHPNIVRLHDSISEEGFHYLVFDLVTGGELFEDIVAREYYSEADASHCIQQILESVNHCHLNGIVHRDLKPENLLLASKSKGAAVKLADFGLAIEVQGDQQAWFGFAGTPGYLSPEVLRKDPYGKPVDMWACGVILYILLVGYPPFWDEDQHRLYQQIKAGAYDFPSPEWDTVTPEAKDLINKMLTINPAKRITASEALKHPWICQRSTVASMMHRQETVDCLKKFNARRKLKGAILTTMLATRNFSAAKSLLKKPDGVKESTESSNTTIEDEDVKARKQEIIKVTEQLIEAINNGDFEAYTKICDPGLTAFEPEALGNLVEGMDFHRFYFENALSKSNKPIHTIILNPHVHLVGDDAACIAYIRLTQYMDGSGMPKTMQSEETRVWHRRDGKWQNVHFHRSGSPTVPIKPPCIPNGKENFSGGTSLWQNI

Turning to `Cc1ccc(NC2=C/C(=N\S(=O)(=O)c3cccs3)c3ccccc3C2=O)c(C)c1`, the figures for the EC50 (with BJ [1]; in test [2]; in the test on BJ [3]) were 4150 nM (active), 1080 nM (active) and 4420 nM (inconclusive), respectively. In the test with INS1, the AC50 (usually the concentration giving half of the maximal activity seen) is 404 nM (active).
`Oc1ccc(-c2cn3c(n2)SCC3)cc1O`: the EC50 (usually the concentration giving half of the maximal effect) is 22100 nM (active) in [4] and 21000 nM (active) in test [5]. Further, the IC50 – broadly, the concentration that gives 50% inhibition – at Aspartyl aminopeptidase is 1550 nM (active); at Large T antigen, 9740 nM (active); in [6] it was > 96600 nM (inactive).
As to `O=C1Nc2ccc3ncsc3c2C1=CNc1ccc(S(=O)(=O)Nc2ccccn2)cc1`, the Ki (as a rule, the equilibrium dissociation constant of an inhibitor or competing ligand from its target) in test [7] is 25.1 nM (active); in test [8], 79.4 nM (active); in [9], 158 nM (active); in test [10], 50.1 nM (active); in [11], 2000 nM (active); in [12], 3.16 nM (active). Moreover, the Ki is 1580 nM (active) in [13]; 158 nM (active) in test [14]; 126 nM (active) in test [15]; > 631 nM (inactive) in test [16]; 79.4 nM (active) in [17]; 794 nM (active) at Ephrin type-A receptor 2. Moreover, the Ki in test [18] is > 3980 nM (inactive); in test [19], 126 nM (active); in test [20], 158 nM (active); in test [21], 200 nM (active); in test [22] it was 2510 nM (active); in [23], 126 nM (active). Further, the Ki was > 2000 nM (inactive) in test [24]; 3.98 nM (active) at Aurora kinase B; 20 nM (active) in test [25]; 50.1 nM (active) in test [26]; 15.8 nM (active) at Aurora kinase A; 3.16 nM (active) in test [27]. In addition, the Ki in [28] is 251 nM (active); in test [29], 316 nM (active); in test [30], 20 nM (active); in [31], 1000 nM (active); in test [32], > 5010 nM (inactive); in [33] it was 1260 nM (active). The Ki in test [34] is > 10000 nM (inactive).
As to `CC(=O)N(C1=C(Cl)C(=O)c2ccccc2C1=O)C1CCCCC1`, the results for the half-maximal inhibitory concentration (IC50) (in [35]; at Beta Lactamase; at Fatty acid synthase) were 3650 nM (active), 5300 nM (active) and 4540 nM (active), respectively. Moreover, the AC50 on Paired box protein Pax-8 was 2740 nM (active). Moreover, the CC50 – broadly, the concentration giving 50% cytotoxicity – in the test with Vero [36] was 13300 nM (active); with Vero [37] it was 22400 nM (active).
